Data as given in ChEMBL document CHEMBL1201862, “PubChem BioAssay data set” (2004).
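Following 48 hours of exposure in 96-well plates, responses at five concentrations were used to interpolate endpoints linearly. GI50 marks 50% less growth.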 Activity calls are given as the source filed them. Rule as the data show it: active = GI50 up to about 1.1 µM and inactive = higher.

Tests used:
Experiment in all cases: NCI anticancer screen, dose series, 48 h
HCC 2998 = tested on: HCC 2998
HCT-116 = tested on: HCT-116
HCT-15 = tested on: HCT-15
K562 = tested on: K562
MOLT-4 = tested on: MOLT-4
NCI-H460 = tested on: NCI-H460
OVCAR-5 = tested on: OVCAR-5
OVCAR-8 = tested on: OVCAR-8
RXF 393 = tested on: RXF 393
SF-268 = tested on: SF-268
SF-539 = tested on: SF-539
SN12C = tested on: SN12C
SR = tested on: SR
UACC-62 = tested on: UACC-62
NCI-H522 = tested on: NCI-H522

Compound | GI50 (HCC 2998) | GI50 (HCT-116) | GI50 (HCT-15) | GI50 (K562) | GI50 (MOLT-4) | GI50 (NCI-H460) | GI50 (OVCAR-5) | GI50 (OVCAR-8) | GI50 (RXF 393) | GI50 (SF-268) | GI50 (SF-539) | GI50 (SN12C) | GI50 (SR) | GI50 (UACC-62) | GI50 (NCI-H522)
COC(=O)C1=C(c2ccc3c(c2)OCO3)OC(c2ccc3c(c2)OCO3)C1 (configuration not stated) | > 100 µM (inactive) | > 100 µM (inactive) | > 100 µM | > 100 µM (inactive) | 16.9 µM (inactive) | > 100 µM (inactive) | > 100 µM (inactive) | > 100 µM (inactive) | 68.5 µM (inactive) | > 100 µM (inactive) | > 100 µM (inactive) | > 100 µM (inactive) | 74.5 µM (inactive) | > 100 µM (inactive) | –
COc1cc(CC(C(=O)O)C(=O)O)c(OC)cc1CC(C(=O)O)C(=O)O | – | > 100 µM (inactive) | > 100 µM | > 100 µM (inactive) | > 100 µM (inactive) | > 100 µM (inactive) | > 100 µM (inactive) | > 100 µM (inactive) | > 100 µM (inactive) | > 100 µM (inactive) | > 100 µM (inactive) | > 100 µM (inactive) | > 100 µM (inactive) | > 100 µM (inactive) | > 100 µM (inactive)
O=C1c2ccccc2NC1(c1ccccc1)c1c(-c2ccccc2)[nH]c2ccccc12 (configuration not stated) | 36.6 µM (inactive) | 7.28 µM (inactive) | 13.4 µM | 8.32 µM (inactive) | 2.91 µM (inactive) | 17.5 µM (inactive) | – | 24.9 µM (inactive) | 6.22 µM (inactive) | – | > 100 µM (inactive) | 14 µM (inactive) | 3.65 µM (inactive) | 45.3 µM (inactive) | –
CCCCCCCCCc1cc(=O)c2ccc(O)cc2o1 | – | 38.5 µM (inactive) | – | 14.5 µM (inactive) | 23.6 µM (inactive) | 57.8 µM (inactive) | > 100 µM (inactive) | 27.1 µM (inactive) | 31.4 µM (inactive) | 44.8 µM (inactive) | 44.4 µM (inactive) | > 100 µM (inactive) | 24.3 µM (inactive) | > 100 µM (inactive) | 31.4 µM (inactive)
C=C[C@]1(C)CCC2=C(CCC3C2(C)CCC[C@@]3(C)COC(C)=O)C1 (some centres not stated) | 17.7 µM (inactive) | 17.2 µM (inactive) | 16.8 µM | 16.5 µM (inactive) | 14.7 µM (inactive) | 17.6 µM (inactive) | 18.2 µM (inactive) | 19.1 µM (inactive) | 22 µM (inactive) | 23.4 µM (inactive) | 20.9 µM (inactive) | 16.8 µM (inactive) | 18.6 µM (inactive) | 21.1 µM (inactive) | 15.4 µM (inactive)
Cn1c(=O)nc2n(-c3cc(C(F)(F)F)cc(C(F)(F)F)c3)c3ccccc3nc-2c1=O | > 100 µM (inactive) | > 100 µM (inactive) | > 100 µM | > 100 µM (inactive) | > 100 µM (inactive) | > 100 µM (inactive) | > 100 µM (inactive) | > 100 µM (inactive) | 75.7 µM (inactive) | > 100 µM (inactive) | > 100 µM (inactive) | > 100 µM (inactive) | > 100 µM (inactive) | – | –
O=C(Nc1ccccc1-c1nn(CO)c(=S)n(CO)c1=O)C(F)(F)F | > 100 µM (inactive) | > 100 µM (inactive) | – | > 100 µM (inactive) | > 100 µM (inactive) | > 100 µM (inactive) | > 100 µM (inactive) | > 100 µM (inactive) | > 100 µM (inactive) | > 100 µM (inactive) | > 100 µM (inactive) | > 100 µM (inactive) | > 100 µM (inactive) | > 100 µM (inactive) | > 100 µM (inactive)
COc1cc(C2c3cc4c(cc3[C@@H](OCCN(C)C)C3COC(=O)[C@H]23)OCO4)cc(OC)c1O (some centres not stated) | – | 1.04 µM (active) | 0.971 µM | 0.562 µM (active) | 0.0165 µM (active) | 0.0127 µM (active) | 0.771 µM (active) | 0.583 µM (active) | 0.396 µM (active) | 0.33 µM (active) | 0.164 µM (active) | 0.151 µM (active) | < 0.01 µM (active) | 0.243 µM (active) | 0.111 µM (active)
COC12CCC(=O)C=C1c1ccccc1N2C(C)=O (configuration not stated) | > 100 µM (inactive) | > 100 µM (inactive) | > 100 µM | > 100 µM (inactive) | > 100 µM (inactive) | > 100 µM (inactive) | – | > 100 µM (inactive) | > 100 µM (inactive) | – | > 100 µM (inactive) | > 100 µM (inactive) | > 100 µM (inactive) | > 100 µM (inactive) | –
CCOC(=O)C(=O)Nc1ccc(Cl)c(C(F)(F)F)c1 | > 100 µM (inactive) | > 100 µM (inactive) | > 100 µM | > 100 µM (inactive) | > 100 µM (inactive) | – | > 100 µM (inactive) | > 100 µM (inactive) | > 100 µM (inactive) | > 100 µM (inactive) | > 100 µM (inactive) | > 100 µM (inactive) | > 100 µM (inactive) | > 100 µM (inactive) | > 100 µM (inactive)
Cc1nn(C)cc1P(=S)(c1ccccc1)c1ccccc1 | > 100 µM (inactive) | 31.8 µM (inactive) | 32.4 µM | 20.6 µM (inactive) | 30.3 µM (inactive) | 40.5 µM (inactive) | > 100 µM (inactive) | 54.3 µM (inactive) | > 100 µM (inactive) | 81.8 µM (inactive) | > 100 µM (inactive) | > 100 µM (inactive) | 22.5 µM (inactive) | 47 µM (inactive) | –
C/C(=N\O)c1sc(-n2nc(-c3ccccc3)cc2-c2ccccc2)nc1C | 13.6 µM (inactive) | 12.6 µM (inactive) | 13.9 µM | 12.6 µM (inactive) | 11.1 µM (inactive) | 15.6 µM (inactive) | > 10 µM (inactive) | 12 µM (inactive) | > 10 µM (inactive) | 12.1 µM (inactive) | 12.2 µM (inactive) | 6.79 µM (inactive) | 15.3 µM (inactive) | 11.6 µM (inactive) | 12.1 µM (inactive)
COc1c(Cl)c2c(c(OC)c1OC)-c1ccc(OC)c(=O)c(Cl)c1C(NC(C)=O)CC2 (configuration not stated) | 0.182 µM (active) | 0.125 µM (active) | 0.356 µM | 0.139 µM (active) | 0.345 µM (active) | 0.134 µM (active) | – | 0.353 µM (active) | 0.0382 µM (active) | 0.212 µM (active) | 0.148 µM (active) | 0.444 µM (active) | 0.444 µM (active) | 0.108 µM (active) | 0.148 µM (active)
COc1ccc(/C=c2\sc3n(c2=O)C(N)=C(C#N)C(c2ccc(OC)cc2)C=3c2nc3ccccc3[nH]2)cc1 (configuration not stated) | 16.4 µM (inactive) | 27.2 µM (inactive) | 27.1 µM | > 100 µM (inactive) | 29.1 µM (inactive) | 18.6 µM (inactive) | 27.4 µM (inactive) | > 10 µM (inactive) | – | 42.1 µM (inactive) | > 10 µM (inactive) | 78.7 µM (inactive) | 39.5 µM (inactive) | 79.4 µM (inactive) | 45.7 µM (inactive)
